Assay results from ChEMBL document CHEMBL1133342, “A convenient extension of the Wessely-Moser rearrangement for the synthesis of substituted alkylaminoflavones as neuroprotective agents in vitro” (Bioorg Med Chem Lett, 2000).

Assays:
[1] = Compound was tested in vitro for intrinsic neurotoxicity against murine HT-22 hippocampal cell cultures by MTT reduction assay; set-up: species or system Hippocampus; details: mouse, HT-22 hippocampal cells; read-out: TC50 (the source's name)
[2] = Maximum tolerated concentration in vitro against murine HT-22 hippocampal cell cultures by LDH assay; format: functional, Mus musculus, Hippocampus
[3] = Compound was tested in vitro for intrinsic neurotoxicity against murine HT-22 hippocampal cell cultures by LDH assay; set-up: species or system Hippocampus; details: mouse, HT-22 hippocampal cells; read-out: TC50 (the source's name)
[4] = Compound was tested in vitro for neuroprotective activity against L-homocysteic acid cytotoxicity in murine HT-22 hippocampal cell cultures by LDH assay; format: functional, Mus musculus, Hippocampus
[5] = Compound was tested in vitro for neuroprotective activity against L-homocysteic acid cytotoxicity in murine HT-22 hippocampal cell cultures by MTT reduction assay; format: functional, Mus musculus, Hippocampus
[6] = Maximum tolerated concentration in vitro against murine HT-22 hippocampal cell cultures by MTT reduction assay; format: functional, Mus musculus, Hippocampus

SMILES | CC50 [1] [µM] | MTC [2] [µM] | CC50 [3] [µM] | PC50 [4] [µM] | PC50 [5] [µM] | MTC [6] [µM]
CC(C)CCNc1c(O)cc(O)c2c(=O)cc(-c3ccccc3)oc12 | 12 | 10 | 16 | 5.5 | 5.3 | 10
CCCNc1c(O)cc2oc(-c3ccccc3)cc(=O)c2c1O | 10 | 100 | 176 | 5.5 | 5.2 | 5
CC(C)CCNc1c(O)cc2oc(-c3ccccc3)cc(=O)c2c1O | 16 | 100 | 116 | 5.2 | 5.2 | 5
CC(C)Nc1c(O)cc2oc(-c3ccccc3)cc(=O)c2c1O | 18 | 100 | 152 | 6.6 | 5.1 | 10
CC(C)CNc1c(O)cc(O)c2c(=O)cc(-c3ccccc3)oc12 | 12 | 10 | 12 | 4.2 | 4.6 | 10
C=CCNc1c(O)cc(O)c2c(=O)cc(-c3ccccc3)oc12 | 18 | 10 | 11 | >10 | >5 | 5
CCCNc1c(O)cc(O)c2c(=O)cc(-c3ccccc3)oc12 | 14 | 25 | 28 | 8 | 7 | 5
